Values joined by “and” are separate entries in the source; they are usually repeats but may differ in a detail not shown here. Identical values can stand only once. Toxic doses and inconclusive results are not listed. No stated cut-off is given here; in the data, active means T/C of 150% or more; inactive means T/C below 125%.
System: L1210 leukemia ip in BDF1 mice, survival T/C
Assay: NCI In Vivo Anticancer Drug Screen. Data for tumor model L1210 Leukemia (intraperitoneal) in B6D2F1 (BDF1) mice
Conditions: higher = longer survival
Outline: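 Transplanted-tumor mice were given test agent; controls received vehicle only. Survival readings from the two groups were divided (treated over control).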

[1] = endpoint: mean survival time, dose: 100.0 mg/kg/injection, schedule: Q01DX009 (ip), vehicle: Klucel (hydroxypropylcellulose) (HPC)

Measured: T/C

O=C(CCBr)N1CCN(C(=O)CCBr)CC1
active: endpoint: mean survival time, dose: 18.0 mg/kg/injection, schedule: Q01DX009 (ip), vehicle: saline 155 % of control and 158 % of control | endpoint: mean survival time, dose: 36.0 mg/kg/injection, schedule: Q01DX009 (ip), vehicle: saline 160 % of control and 186 % of control | endpoint: mean survival time, dose: 36.0 mg/kg/injection, schedule: Q01DX Z (ip), vehicle: carboxymethylcellulose (CMC) 150 % of control | endpoint: mean survival time, dose: 45.0 mg/kg/injection, schedule: Q01DX Z (ip), vehicle: methylcellulose (MC) 172 % of control | endpoint: mean survival time, dose: 54.0 mg/kg/injection, schedule: Q01DX009 (ip), vehicle: saline 183 % of control and 208 % of control | endpoint: mean survival time, dose: 90.0 mg/kg/injection, schedule: Q01DX Z (ip), vehicle: methylcellulose (MC) 155 % of control | endpoint: mean survival time, dose: 100.0 mg/kg/injection, schedule: Q01DX Z (ip), vehicle: carboxymethylcellulose (CMC) 155 % of control | endpoint: mean survival time, dose: 100.0 mg/kg/injection, schedule: Q01DX Z (oral), vehicle: carboxymethylcellulose (CMC) 162 % of control | endpoint: mean survival time, dose: 120.0 mg/kg/injection, schedule: Q01DX009 (ip), vehicle: saline 202 % of control and 218 % of control | endpoint: mean survival time, dose: 150.0 mg/kg/injection, schedule: Q03DX008 (ip), vehicle: carboxymethylcellulose (CMC) 205 % of control | endpoint: mean survival time, dose: 200.0 mg/kg/injection, schedule: Q01DX Z (im), vehicle: carboxymethylcellulose (CMC) 158 % of control | endpoint: mean survival time, dose: 200.0 mg/kg/injection, schedule: Q01DX Z (ip), vehicle: carboxymethylcellulose (CMC) 162 % of control | endpoint: mean survival time, dose: 200.0 mg/kg/injection, schedule: Q01DX Z (sc), vehicle: carboxymethylcellulose (CMC) 158 % of control | endpoint: mean survival time, dose: 300.0 mg/kg/injection, schedule: Q03DX008 (ip), vehicle: carboxymethylcellulose (CMC) 181 % of control | endpoint: mean survival time, dose: 350.0 mg/kg/injection, schedule: Q07DX004 (ip), vehicle: carboxymethylcellulose (CMC) 215 % of control | endpoint: mean survival time, dose: 400.0 mg/kg/injection, schedule: Q04DX003 (ip), vehicle: saline 153 % of control and 180 % of control | endpoint: median survival time, dose: 40.0 mg/kg/injection, schedule: Q01DX009 (ip), vehicle: saline 150 % of control | endpoint: median survival time, dose: 80.0 mg/kg/injection, schedule: Q01DX009 (ip), vehicle: saline 181 % of control and 183 % of control
inactive: endpoint: mean survival time, dose: 1.33 mg/kg/injection, schedule: Q#B X Z (ip), vehicle: carboxymethylcellulose (CMC) 86 % of control | endpoint: mean survival time, dose: 2.66 mg/kg/injection, schedule: Q#B X Z (ip), vehicle: carboxymethylcellulose (CMC) 108 % of control | endpoint: mean survival time, dose: 3.2 mg/kg/injection, schedule: Q01DX Z (oral), vehicle: carboxymethylcellulose (CMC) 100 % of control | endpoint: mean survival time, dose: 5.33 mg/kg/injection, schedule: Q#B X Z (ip), vehicle: carboxymethylcellulose (CMC) 103 % of control | endpoint: mean survival time, dose: 5.5 mg/kg/injection, schedule: Q07DX006 (ip), vehicle: carboxymethylcellulose (CMC) 111 % of control | endpoint: mean survival time, dose: 5.6 mg/kg/injection, schedule: Q01DX Z (ip), vehicle: methylcellulose (MC) 120 % of control | endpoint: mean survival time, dose: 10.0 mg/kg/injection, schedule: Q01DX009 (ip), vehicle: saline 94 % of control and 102 % of control | endpoint: mean survival time, dose: 10.6 mg/kg/injection, schedule: Q01DX Z (ip), vehicle: carboxymethylcellulose (CMC) 108 % of control and 117 % of control | endpoint: mean survival time, dose: 10.66 mg/kg/injection, schedule: Q#B X Z (ip), vehicle: carboxymethylcellulose (CMC) 86 % of control | endpoint: mean survival time, dose: 10.9 mg/kg/injection, schedule: Q07DX006 (ip), vehicle: carboxymethylcellulose (CMC) 90 % of control | endpoint: mean survival time, dose: 11.25 mg/kg/injection, schedule: Q01DX Z (ip), vehicle: methylcellulose (MC) 115 % of control | endpoint: mean survival time, dose: 12.0 mg/kg/injection, schedule: Q01DX006 (iv), vehicle: carboxymethylcellulose (CMC) 113 % of control | endpoint: mean survival time, dose: 12.0 mg/kg/injection, schedule: Q01DX Z (im), vehicle: carboxymethylcellulose (CMC) 101 % of control | endpoint: mean survival time, dose: 12.0 mg/kg/injection, schedule: Q01DX Z (ip), vehicle: carboxymethylcellulose (CMC) 95 % of control | endpoint: mean survival time, dose: 12.0 mg/kg/injection, schedule: Q01DX Z (sc), vehicle: carboxymethylcellulose (CMC) 94 % of control | endpoint: mean survival time, dose: 12.5 mg/kg/injection, schedule: Q01DX Z (oral), vehicle: carboxymethylcellulose (CMC) 110 % of control | endpoint: mean survival time, dose: 16.0 mg/kg/injection, schedule: Q01DX Z (ip), vehicle: carboxymethylcellulose (CMC) 111 % of control | endpoint: mean survival time, dose: 20.0 mg/kg/injection, schedule: Q01DX009 (ip), vehicle: saline 103 % of control and 108 % of control | endpoint: mean survival time, dose: 21.8 mg/kg/injection, schedule: Q07DX006 (ip), vehicle: carboxymethylcellulose (CMC) 106 % of control | endpoint: mean survival time, dose: 24.0 mg/kg/injection, schedule: Q01DX Z (ip), vehicle: carboxymethylcellulose (CMC) 111 % of control | endpoint: mean survival time, dose: 25.0 mg/kg/injection, schedule: Q01DX001 (ip), vehicle: saline 99 % of control and 106 % of control and 111 % of control | endpoint: mean survival time, dose: 25.0 mg/kg/injection, schedule: Q01DX006 (iv), vehicle: carboxymethylcellulose (CMC) 94 % of control | endpoint: mean survival time, dose: 25.0 mg/kg/injection, schedule: Q01DX Z (im), vehicle: carboxymethylcellulose (CMC) 94 % of control | endpoint: mean survival time, dose: 25.0 mg/kg/injection, schedule: Q01DX Z (ip), vehicle: carboxymethylcellulose (CMC) 98 % of control | endpoint: mean survival time, dose: 25.0 mg/kg/injection, schedule: Q01DX Z (oral), vehicle: carboxymethylcellulose (CMC) 120 % of control | endpoint: mean survival time, dose: 25.0 mg/kg/injection, schedule: Q01DX Z (sc), vehicle: carboxymethylcellulose (CMC) 103 % of control | endpoint: mean survival time, dose: 37.0 mg/kg/injection, schedule: Q03DX008 (ip), vehicle: carboxymethylcellulose (CMC) 104 % of control | endpoint: mean survival time, dose: 50.0 mg/kg/injection, schedule: Q01DX001 (ip), vehicle: saline 110 % of control and 111 % of control and 116 % of control | endpoint: mean survival time, dose: 50.0 mg/kg/injection, schedule: Q01DX006 (iv), vehicle: carboxymethylcellulose (CMC) 113 % of control | endpoint: mean survival time, dose: 50.0 mg/kg/injection, schedule: Q01DX Z (im), vehicle: carboxymethylcellulose (CMC) 110 % of control | endpoint: mean survival time, dose: 50.0 mg/kg/injection, schedule: Q01DX Z (ip), vehicle: carboxymethylcellulose (CMC) 123 % of control | endpoint: mean survival time, dose: 50.0 mg/kg/injection, schedule: Q01DX Z (sc), vehicle: carboxymethylcellulose (CMC) 116 % of control | endpoint: mean survival time, dose: 81.0 mg/kg/injection, schedule: Q01DX Z (ip), vehicle: carboxymethylcellulose (CMC) 117 % of control | endpoint: mean survival time, dose: 100.0 mg/kg/injection, schedule: Q01DX001 (ip), vehicle: carboxymethylcellulose (CMC) 103 % of control and 110 % of control | endpoint: mean survival time, dose: 100.0 mg/kg/injection, schedule: Q01DX001 (ip), vehicle: saline 121 % of control | endpoint: mean survival time, dose: 100.0 mg/kg/injection, schedule: Q01DX006 (iv), vehicle: carboxymethylcellulose (CMC) 123 % of control | endpoint: mean survival time, dose: 100.0 mg/kg/injection, schedule: Q04DX003 (ip), vehicle: saline 111 % of control | endpoint: mean survival time, dose: 200.0 mg/kg/injection, schedule: Q01DX001 (ip), vehicle: carboxymethylcellulose (CMC) 108 % of control and 124 % of control | endpoint: mean survival time, dose: 200.0 mg/kg/injection, schedule: Q01DX Z (oral), vehicle: carboxymethylcellulose (CMC) 90 % of control | endpoint: mean survival time, dose: 400.0 mg/kg/injection, schedule: Q01DX001 (ip), vehicle: carboxymethylcellulose (CMC) 102 % of control | endpoint: mean survival time, dose: 400.0 mg/kg/injection, schedule: Q01DX001 (ip), vehicle: saline 114 % of control | endpoint: mean survival time, dose: 400.0 mg/kg/injection, schedule: Q01DX Z (im), vehicle: carboxymethylcellulose (CMC) 100 % of control | endpoint: mean survival time, dose: 400.0 mg/kg/injection, schedule: Q01DX Z (ip), vehicle: carboxymethylcellulose (CMC) 94 % of control | endpoint: mean survival time, dose: 400.0 mg/kg/injection, schedule: Q01DX Z (sc), vehicle: carboxymethylcellulose (CMC) 98 % of control | endpoint: mean survival time, dose: 600.0 mg/kg/injection, schedule: Q03DX003 (ip), vehicle: carboxymethylcellulose (CMC) 90 % of control | endpoint: mean survival time, dose: 700.0 mg/kg/injection, schedule: Q07DX004 (ip), vehicle: carboxymethylcellulose (CMC) 100 % of control | endpoint: mean survival time, dose: 800.0 mg/kg/injection, schedule: Q01DX001 (ip), vehicle: carboxymethylcellulose (CMC) 98 % of control and 116 % of control | endpoint: median survival time, dose: 10.0 mg/kg/injection, schedule: Q01DX009 (ip), vehicle: saline 105 % of control and 87 % of control

CSCCC(C#N)(CCN(C)C)c1ccccc1 (configuration not stated)
inactive: endpoint: mean survival time, dose: 25.0 mg/kg/injection, schedule: Q01DX009 (ip), vehicle: other 102 % of control | endpoint: mean survival time, dose: 50.0 mg/kg/injection, schedule: Q01DX009 (ip), vehicle: other 98 % of control | endpoint: mean survival time, dose: 100.0 mg/kg/injection, schedule: Q01DX009 (ip), vehicle: other 91 % of control | endpoint: mean survival time, dose: 100.0 mg/kg/injection, schedule: Q01DX009 (ip), vehicle: saline with Tween-80 97 % of control | endpoint: mean survival time, dose: 100.0 mg/kg/injection, schedule: Q04DX003 (ip), vehicle: Klucel (hydroxypropylcellulose) (HPC) 96 % of control | endpoint: mean survival time, dose: 200.0 mg/kg/injection, schedule: Q04DX003 (ip), vehicle: Klucel (hydroxypropylcellulose) (HPC) 98 % of control

Cc1ccc(C)c(NC(=O)Nc2ccc(Nc3ccccc3)cc2)c1
inactive: [1] 88 % of control | endpoint: mean survival time, dose: 400.0 mg/kg/injection, schedule: Q01DX009 (ip), vehicle: Klucel (hydroxypropylcellulose) (HPC) 91 % of control

CCCCCSP(SCCCCC)c1ccccc1
inactive: [1] 92 % of control | endpoint: mean survival time, dose: 200.0 mg/kg/injection, schedule: Q01DX009 (ip), vehicle: Klucel (hydroxypropylcellulose) (HPC) 94 % of control

[O]=[Sb]([OH])([c]1ccc(Cl)cc1)[c]1ccc(Cl)cc1
inactive: endpoint: mean survival time, dose: 75.0 mg/kg/injection, schedule: Q01DX001 (ip), vehicle: saline 116 % of control

Reference: PubChem BioAssay AID248 (DTP/NCI, 2004)
